Reference: patent publication US20240300932A1, “N-PHENYLIMINE DERIVATIVE AND PREPARATION METHOD AND USE THEREOF” (Guizhou University, priority 2023, published 2024)

Experiments:
Assay in all cases: Post-emergence herbicidal activity test (stem and leaf spray, pot culture)
Type in all cases: in vivo
Details in all cases: 3 weeks after spraying
[1] = test system: Abutilon theophrasti
Procedure, shortened: (§1)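 Seeds soaked 6 h at 25 °C, germinated at 28 °C, sown in loam pots and thinned to 10 plants/pot. At 2–3 leaves, plants received a single spray-tower application of 10, 5 or 2.5 g/mu. Fresh-weight control was graded 0–5 after 3 weeks.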

[2] = test system: Amaranthus retroflexus
Procedure, shortened: as §1

[3] = test system: Echinochloa crusgalli
Procedure, shortened: as §1

[4] = test system: Portulaca oleracea
Procedure, shortened: as §1

[5] = test system: Setaria viridis
Procedure, shortened: as §1

[6] = test system: Trifoliumre pensL.
Procedure, shortened: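 Rates of 10, 5 and 2.5 g/mu were applied in a single spray-tower treatment to 2–3-leaf plants, thinned to 10 per pot. Formulation: acetone solution, Tween 80, 1.5 L/ha methyl oleate synergist. Weed response assessed after 3 further greenhouse weeks; mean of three experiments.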

| SMILES | Post-emergence herbicidal activity, A. theophrasti (grade) ([1]; dosage 2.5 g/mu) | Post-emergence herbicidal activity, A. theophrasti (grade) ([1]; dosage 5 g/mu) | Post-emergence herbicidal activity, A. theophrasti (grade) ([1]; dosage 10 g/mu) | Post-emergence herbicidal activity, A. retroflexus (grade) ([2]; dosage 2.5 g/mu) | Post-emergence herbicidal activity, A. retroflexus (grade) ([2]; dosage 5 g/mu) | Post-emergence herbicidal activity, A. retroflexus (grade) ([2]; dosage 10 g/mu) | Post-emergence herbicidal activity, E. crusgalli (grade) ([3]; dosage 2.5 g/mu) | Post-emergence herbicidal activity, E. crusgalli (grade) ([3]; dosage 5 g/mu) | Post-emergence herbicidal activity, E. crusgalli (grade) ([3]; dosage 10 g/mu) | Post-emergence herbicidal activity, P. oleracea (grade) ([4]; dosage 2.5 g/mu) | Post-emergence herbicidal activity, P. oleracea (grade) ([4]; dosage 5 g/mu) | Post-emergence herbicidal activity, P. oleracea (grade) ([4]; dosage 10 g/mu) | Post-emergence herbicidal activity, S. viridis (grade) ([5]; dosage 2.5 g/mu) | Post-emergence herbicidal activity, S. viridis (grade) ([5]; dosage 5 g/mu) | Post-emergence herbicidal activity, S. viridis (grade) ([5]; dosage 10 g/mu) | Post-emergence herbicidal activity, Trifoliumre pensL. (grade) ([6]; dosage 2.5 g/mu) | Post-emergence herbicidal activity, Trifoliumre pensL. (grade) ([6]; dosage 5 g/mu) | Post-emergence herbicidal activity, Trifoliumre pensL. (grade) ([6]; dosage 10 g/mu) |
| --- | --- | --- | --- | --- | --- | --- | --- | --- | --- | --- | --- | --- | --- | --- | --- | --- | --- | --- |
| O=C1C2=C(CCCC2)C(=O)N1c1cc(OCc2nnc(-c3cccc([N+](=O)[O-])c3)o2)c(Cl)cc1F [Compound B12] | 5 (Grade 5: the growth control rate is greater than or equal to 85%) | 5 (Grade 5: the growth control rate is greater than or equal to 85%) | 5 (Grade 5: the growth control rate is greater than or equal to 85%) | 5 (Grade 5: the growth control rate is greater than or equal to 85%) | 5 (Grade 5: the growth control rate is greater than or equal to 85%) | 5 (Grade 5: the growth control rate is greater than or equal to 85%) | 1 (Grade 1: the growth control rate is greater than or equal to 5% and less than 20%) | 2 (Grade 2: the growth control rate is greater than or equal to 20% and less than 40%) | 3 (Grade 3: the growth control rate is greater than or equal to 40% and less than 60%) | 5 (Grade 5: the growth control rate is greater than or equal to 85%) | 5 (Grade 5: the growth control rate is greater than or equal to 85%) | 5 (Grade 5: the growth control rate is greater than or equal to 85%) | 2 (Grade 2: the growth control rate is greater than or equal to 20% and less than 40%) | 3 (Grade 3: the growth control rate is greater than or equal to 40% and less than 60%) | 4 (Grade 4: the growth control rate is greater than or equal to 60% and less than 85%) | 5 (Grade 5: the growth control rate is greater than or equal to 85%) | 5 (Grade 5: the growth control rate is greater than or equal to 85%) | 5 (Grade 5: the growth control rate is greater than or equal to 85%) |
| O=C1C2=C(CCCC2)C(=O)N1c1cc(OCc2nnc(-c3ccc(F)cc3)o2)c(Cl)cc1F [Compound B14] | 4 (Grade 4: the growth control rate is greater than or equal to 60% and less than 85%) | 5 (Grade 5: the growth control rate is greater than or equal to 85%) | 5 (Grade 5: the growth control rate is greater than or equal to 85%) | 5 (Grade 5: the growth control rate is greater than or equal to 85%) | 5 (Grade 5: the growth control rate is greater than or equal to 85%) | 5 (Grade 5: the growth control rate is greater than or equal to 85%) | 1 (Grade 1: the growth control rate is greater than or equal to 5% and less than 20%) | 2 (Grade 2: the growth control rate is greater than or equal to 20% and less than 40%) | 3 (Grade 3: the growth control rate is greater than or equal to 40% and less than 60%) | 4 (Grade 4: the growth control rate is greater than or equal to 60% and less than 85%) | 5 (Grade 5: the growth control rate is greater than or equal to 85%) | 5 (Grade 5: the growth control rate is greater than or equal to 85%) | 2 (Grade 2: the growth control rate is greater than or equal to 20% and less than 40%) | 3 (Grade 3: the growth control rate is greater than or equal to 40% and less than 60%) | 4 (Grade 4: the growth control rate is greater than or equal to 60% and less than 85%) | 5 (Grade 5: the growth control rate is greater than or equal to 85%) | 5 (Grade 5: the growth control rate is greater than or equal to 85%) | 5 (Grade 5: the growth control rate is greater than or equal to 85%) |
| O=C1C2=C(CCCC2)C(=O)N1c1cc(OCc2nnc(-c3ccc(Cl)cc3)o2)c(Cl)cc1F [Compound B15] | 5 (Grade 5: the growth control rate is greater than or equal to 85%) | 5 (Grade 5: the growth control rate is greater than or equal to 85%) | 5 (Grade 5: the growth control rate is greater than or equal to 85%) | 5 (Grade 5: the growth control rate is greater than or equal to 85%) | 5 (Grade 5: the growth control rate is greater than or equal to 85%) | 5 (Grade 5: the growth control rate is greater than or equal to 85%) | 1 (Grade 1: the growth control rate is greater than or equal to 5% and less than 20%) | 2 (Grade 2: the growth control rate is greater than or equal to 20% and less than 40%) | 3 (Grade 3: the growth control rate is greater than or equal to 40% and less than 60%) | 5 (Grade 5: the growth control rate is greater than or equal to 85%) | 5 (Grade 5: the growth control rate is greater than or equal to 85%) | 5 (Grade 5: the growth control rate is greater than or equal to 85%) | 2 (Grade 2: the growth control rate is greater than or equal to 20% and less than 40%) | 3 (Grade 3: the growth control rate is greater than or equal to 40% and less than 60%) | 4 (Grade 4: the growth control rate is greater than or equal to 60% and less than 85%) | 5 (Grade 5: the growth control rate is greater than or equal to 85%) | 5 (Grade 5: the growth control rate is greater than or equal to 85%) | 5 (Grade 5: the growth control rate is greater than or equal to 85%) |
| O=C1C2=C(CCCC2)C(=O)N1c1cc(OCc2nnc(-c3ccc(Br)cc3)o2)c(Cl)cc1F [Compound B16] | 5 (Grade 5: the growth control rate is greater than or equal to 85%) | 5 (Grade 5: the growth control rate is greater than or equal to 85%) | 5 (Grade 5: the growth control rate is greater than or equal to 85%) | 5 (Grade 5: the growth control rate is greater than or equal to 85%) | 5 (Grade 5: the growth control rate is greater than or equal to 85%) | 5 (Grade 5: the growth control rate is greater than or equal to 85%) | 1 (Grade 1: the growth control rate is greater than or equal to 5% and less than 20%) | 2 (Grade 2: the growth control rate is greater than or equal to 20% and less than 40%) | 3 (Grade 3: the growth control rate is greater than or equal to 40% and less than 60%) | 5 (Grade 5: the growth control rate is greater than or equal to 85%) | 5 (Grade 5: the growth control rate is greater than or equal to 85%) | 5 (Grade 5: the growth control rate is greater than or equal to 85%) | 2 (Grade 2: the growth control rate is greater than or equal to 20% and less than 40%) | 3 (Grade 3: the growth control rate is greater than or equal to 40% and less than 60%) | 4 (Grade 4: the growth control rate is greater than or equal to 60% and less than 85%) | 5 (Grade 5: the growth control rate is greater than or equal to 85%) | 5 (Grade 5: the growth control rate is greater than or equal to 85%) | 5 (Grade 5: the growth control rate is greater than or equal to 85%) |
